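Interpolation was linear, between the two tested concentrations surrounding the appropriate level; five concentrations were tested over 48 hours in 96-well plates. GI50: concentration for 50% inhibition of growth.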 The source made the active and inactive calls. Cut-off read from the data, not from the text of the source: active = GI50 up to about 1.1 µM and inactive = higher.
How the values were obtained:
Experiment in all cases: growth of human tumour cells (NCI), 48 h
UO-31 = test system: UO-31
SR = test system: SR
K562 = test system: K562
HCT-116 = test system: HCT-116
OVCAR-8 = test system: OVCAR-8
MCF7 = test system: MCF7
HL-60 = test system: HL-60
A549 = test system: A549
T47D = test system: T47D
HOP-62 = test system: HOP-62
DU-145 = test system: DU-145
NCI-H522 = test system: NCI-H522
A498 = test system: A498
RXF 393 = test system: RXF 393
SK-OV-3 = test system: SK-OV-3
SNB-19 = test system: SNB-19
PC-3 = test system: PC-3
COLO 205 = test system: COLO 205
MDA-MB-435 = test system: MDA-MB-435
UACC-257 = test system: UACC-257
EKVX = test system: EKVX
NCI-H226 = test system: NCI-H226
IGROV-1 = test system: IGROV-1
MOLT-4 = test system: MOLT-4
CCRF-CEM = test system: CCRF-CEM
SNB-75 = test system: SNB-75
SK-MEL-2 = test system: SK-MEL-2
SK-MEL-28 = test system: SK-MEL-28
ACHN = test system: ACHN
OVCAR-3 = test system: OVCAR-3
HOP-92 = test system: HOP-92
MDA-MB-231 = test system: MDA-MB-231
SW-620 = test system: SW-620
UACC-62 = test system: UACC-62
SN12C = test system: SN12C
SF-268 = test system: SF-268
SF-539 = test system: SF-539
SF-295 = test system: SF-295
HCC 2998 = test system: HCC 2998
TK-10 = test system: TK-10
M14 = test system: M14
786-0 = test system: 786-0
SK-MEL-5 = test system: SK-MEL-5
MDA-N = test system: MDA-N
Malme-3M = test system: Malme-3M
NCI-H460 = test system: NCI-H460
HT-29 = test system: HT-29
KM12 = test system: KM12
LOX IMVI = test system: LOX IMVI
OVCAR-5 = test system: OVCAR-5
CAKI-1 = test system: CAKI-1
OVCAR-4 = test system: OVCAR-4
NCI-H23 = test system: NCI-H23
U-251 = test system: U-251
NCI/ADR-RES = test system: NCI/ADR-RES
HCT-15 = test system: HCT-15
Hs-578T = test system: Hs-578T
RPMI-8226 = test system: RPMI-8226

Measured: GI50

CC(=O)c1ccc(NC(=O)CSc2nc(C)nc3c2sc(=S)n3-c2ccccc2)cc1
inactive: UO-31 9.42 µM | SR 2.2 µM | K562 > 10 µM | HCT-116 3 µM | OVCAR-8 > 10 µM | MCF7 > 10 µM | HL-60 2.99 µM

CCOC(=O)c1c(-c2ccc(Cl)cc2)c(C#N)c(=S)n(C2OC(COC(C)=O)C(OC(C)=O)C(OC(C)=O)C2OC(C)=O)c1C (centres undefined)
active: UO-31 0.565 µM | PC-3 0.759 µM | SNB-75 0.689 µM | HOP-92 0.125 µM
inactive: A549 > 100 µM | T47D > 100 µM | HOP-62 > 100 µM | SR > 100 µM | DU-145 > 100 µM | NCI-H522 > 100 µM | K562 > 100 µM | HCT-116 > 100 µM | A498 74 µM | RXF 393 > 100 µM | SK-OV-3 > 100 µM | SNB-19 > 100 µM | COLO 205 > 100 µM | MDA-MB-435 > 100 µM | UACC-257 > 100 µM | EKVX > 100 µM | NCI-H226 > 100 µM | IGROV-1 > 100 µM | MOLT-4 > 100 µM | CCRF-CEM > 100 µM | SK-MEL-2 1.77 µM | SK-MEL-28 > 100 µM | ACHN > 100 µM | OVCAR-3 > 100 µM | OVCAR-8 > 100 µM | MDA-MB-231 > 100 µM | SW-620 > 100 µM | MCF7 > 100 µM | UACC-62 > 100 µM | SN12C > 100 µM | SF-268 > 100 µM | HL-60 > 100 µM | SF-539 > 100 µM | SF-295 > 100 µM | HCC 2998 > 100 µM | TK-10 > 100 µM | M14 > 100 µM | 786-0 > 100 µM | SK-MEL-5 > 100 µM | MDA-N > 100 µM | Malme-3M > 100 µM | NCI-H460 > 100 µM | HT-29 > 100 µM | KM12 > 100 µM | LOX IMVI > 100 µM | OVCAR-5 > 100 µM | CAKI-1 > 100 µM | OVCAR-4 90.2 µM | NCI-H23 > 100 µM | U-251 > 100 µM | NCI/ADR-RES > 100 µM
> 100 µM: HCT-15

COC(=O)C1(C(=O)OC)CC2=C(S(=O)(=O)c3ccccc3)C[C@H](C#N)[C@H]2C1
inactive: UO-31 > 100 µM | A549 > 100 µM | T47D 57.5 µM | HOP-62 > 100 µM | DU-145 > 100 µM | NCI-H522 46.3 µM | HCT-116 > 100 µM | A498 > 100 µM | RXF 393 > 100 µM | SK-OV-3 > 100 µM | SNB-19 64.6 µM | PC-3 > 100 µM | COLO 205 68.5 µM | MDA-MB-435 49.1 µM | UACC-257 > 100 µM | EKVX > 100 µM | NCI-H226 > 100 µM | IGROV-1 44.6 µM | MOLT-4 > 100 µM | CCRF-CEM > 100 µM | SNB-75 > 100 µM | SK-MEL-2 > 100 µM | SK-MEL-28 > 100 µM | ACHN > 100 µM | OVCAR-8 > 100 µM | Hs-578T > 100 µM | HOP-92 69.8 µM | MDA-MB-231 > 100 µM | SW-620 > 100 µM | MCF7 24 µM | UACC-62 > 100 µM | SN12C > 100 µM | SF-268 > 100 µM | HL-60 > 100 µM | SF-539 > 100 µM | SF-295 > 100 µM | TK-10 > 100 µM | M14 > 100 µM | 786-0 > 100 µM | SK-MEL-5 > 100 µM | MDA-N 79.4 µM | Malme-3M > 100 µM | HT-29 > 100 µM | KM12 > 100 µM | LOX IMVI > 100 µM | OVCAR-5 > 100 µM | CAKI-1 > 100 µM | OVCAR-4 > 100 µM | NCI-H23 > 100 µM | U-251 > 100 µM | NCI/ADR-RES > 100 µM
40.6 µM: HCT-15

CCOC(=O)C1C(c2ccc3c(c2)OCO3)c2c(n[nH]c2O)CC1(O)OCC (centres undefined)
> 100 µM: HCT-15
inactive: UO-31 > 100 µM | A549 > 100 µM | T47D > 100 µM | HOP-62 > 100 µM | SR > 100 µM | DU-145 > 100 µM | NCI-H522 > 100 µM | HCT-116 > 100 µM | A498 > 100 µM | SNB-19 > 10 µM | PC-3 > 100 µM | COLO 205 > 100 µM | MDA-MB-435 > 100 µM | UACC-257 > 100 µM | EKVX > 100 µM | IGROV-1 > 100 µM | MOLT-4 > 100 µM | CCRF-CEM > 100 µM | SNB-75 > 100 µM | SK-MEL-2 > 100 µM | SK-MEL-28 > 100 µM | ACHN > 100 µM | OVCAR-3 > 100 µM | OVCAR-8 > 100 µM | Hs-578T > 100 µM | HOP-92 > 100 µM | MDA-MB-231 > 100 µM | SW-620 > 100 µM | MCF7 > 100 µM | UACC-62 > 100 µM | SN12C > 100 µM | SF-268 > 100 µM | HL-60 > 100 µM | SF-539 > 100 µM | SF-295 > 100 µM | HCC 2998 > 100 µM | TK-10 > 100 µM | M14 > 100 µM | 786-0 > 100 µM | SK-MEL-5 > 100 µM | Malme-3M > 100 µM | NCI-H460 > 100 µM | HT-29 > 100 µM | KM12 > 100 µM | LOX IMVI > 100 µM | OVCAR-5 > 100 µM | RPMI-8226 > 100 µM | CAKI-1 > 100 µM | OVCAR-4 > 100 µM | NCI-H23 > 100 µM | U-251 > 100 µM | NCI/ADR-RES > 100 µM

COc1ccc2c(c1)c[n+](C)c1c3cc(OC)c(OC)cc3ccc21
active: NCI-H522 1.02 µM | U-251 1.02 µM
inactive: A549 1.54 µM | SR 2.1 µM | SNB-19 3.21 µM | COLO 205 1.67 µM | OVCAR-8 1.22 µM | Hs-578T 2.05 µM | MDA-MB-231 1.42 µM | SW-620 1.37 µM | SN12C 1.73 µM | SF-268 1.45 µM | MDA-N 1.6 µM | LOX IMVI 1.32 µM | CAKI-1 11.9 µM | NCI/ADR-RES > 100 µM
14 µM: HCT-15

COc1cc2ccc3ccncc3c2cc1OC
inactive: A549 > 10 µM | T47D > 10 µM | HOP-62 > 10 µM | SR > 10 µM | K562 > 10 µM | RXF 393 > 10 µM | SK-OV-3 > 10 µM | COLO 205 > 10 µM | MDA-MB-435 > 10 µM | IGROV-1 > 10 µM | MOLT-4 > 10 µM | CCRF-CEM > 10 µM | SNB-75 > 10 µM | SK-MEL-2 > 10 µM | SK-MEL-28 > 10 µM | ACHN > 10 µM | SW-620 > 10 µM | MCF7 > 10 µM | UACC-62 > 10 µM | SF-268 > 10 µM | M14 > 10 µM | 786-0 > 10 µM | SK-MEL-5 > 10 µM | Malme-3M > 10 µM | NCI-H460 > 10 µM | OVCAR-5 > 10 µM | RPMI-8226 > 10 µM | CAKI-1 > 10 µM | OVCAR-4 > 10 µM | NCI-H23 > 10 µM | U-251 > 10 µM | NCI/ADR-RES > 10 µM

COC[C@H]1OC(=O)c2coc3c2[C@@]1(C)C1=C(C3=O)[C@@H]2CCC(=O)[C@@]2(C)C[C@H]1OC(C)=O [WORTMANNIN]
active: UO-31 0.665 µM | T47D 0.637 µM | PC-3 0.598 µM | SNB-75 0.323 µM | CAKI-1 0.0108 µM
inactive: A549 6.56 µM | HOP-62 3.05 µM | SR 1.84 µM | DU-145 3.34 µM | NCI-H522 13.8 µM | K562 37.2 µM | HCT-116 13.4 µM | SNB-19 6.38 µM | COLO 205 10 µM | MDA-MB-435 3.25 µM | UACC-257 2.95 µM | EKVX 9.66 µM | IGROV-1 1.28 µM | MOLT-4 2.09 µM | CCRF-CEM 1.38 µM | SK-MEL-2 2.21 µM | SK-MEL-28 7.45 µM | ACHN 13.6 µM | OVCAR-3 4.65 µM | OVCAR-8 25 µM | SW-620 17.7 µM | MCF7 5.66 µM | UACC-62 1.31 µM | SN12C 7.14 µM | SF-268 21.4 µM | SF-539 2.82 µM | SF-295 2.96 µM | HCC 2998 2.16 µM | TK-10 11.9 µM | M14 2.15 µM | 786-0 8.43 µM | SK-MEL-5 11.5 µM | MDA-N 15.1 µM | NCI-H460 8.95 µM | HT-29 1.97 µM | KM12 11.5 µM | LOX IMVI 3.66 µM | OVCAR-5 15 µM | RPMI-8226 2.43 µM | NCI-H23 35.7 µM | NCI/ADR-RES 38.8 µM
9.91 µM: HCT-15

Source: ChEMBL document CHEMBL1201862, “PubChem BioAssay data set” (2004)
